Results reported in ChEMBL document CHEMBL2311472, “Discovery and optimization of potent broad-spectrum arenavirus inhibitors derived from benzimidazole and related heterocycles” (Bioorg Med Chem Lett, 2013).

system: Guanarito virus; experiment: Antiviral activity against Guanarito virus; type: functional; details: Mammarenavirus guanaritoense

| SMILES | EC50 [nM] |
| --- | --- |
| CCOc1ccc(-n2nnc3cc(NCc4ccc(CC)cc4)cnc32)cc1 | 7.7 |
| COc1ccc(-n2cnc3cc(NCc4ccc(C(C)C)cc4)ccc32)cc1 | 0.44 |
| CCOc1ccc(-n2cnc3cc(NCc4ccc(CC)cc4)cnc32)cc1 | 3.5 |

system: Junin virus; experiment: Antiviral activity against Junin virus; type: functional, organism-based; details: Mammarenavirus juninense

| SMILES | EC50 [nM] |
| --- | --- |
| CCOc1ccc(-n2nnc3cc(NCc4ccc(CC)cc4)cnc32)cc1 | 14 |
| CCOc1ccc(-c2c[nH]c3cc(NCc4ccc(CC)cc4)ccc23)cc1 | 12 |
| COc1ccc(-n2cnc3cc(NCc4ccc(C(C)C)cc4)ccc32)cc1 | 0.62 |
| CCOc1ccc(-n2cnc3cc(NCc4ccc(CC)cc4)cnc32)cc1 | 7.9 |

system: Sabia virus; experiment: Antiviral activity against Sabia virus; type: functional; details: not given

| SMILES | EC50 [nM] |
| --- | --- |
| CCOc1ccc(-n2nnc3cc(NCc4ccc(CC)cc4)cnc32)cc1 | 93 |
| CCOc1ccc(-c2c[nH]c3cc(NCc4ccc(CC)cc4)ccc23)cc1 | 3.9 |
| COc1ccc(-n2cnc3cc(NCc4ccc(C(C)C)cc4)ccc32)cc1 | 21 |
| CCOc1ccc(-n2cnc3cc(NCc4ccc(CC)cc4)cnc32)cc1 | 54 |

system: Machupo mammarenavirus; experiment: Antiviral activity against Machupo virus; type: functional; details: Mammarenavirus machupoense

| SMILES | EC50 [nM] |
| --- | --- |
| CCOc1ccc(-n2nnc3cc(NCc4ccc(CC)cc4)cnc32)cc1 | 81 |
| CCOc1ccc(-c2c[nH]c3cc(NCc4ccc(CC)cc4)ccc23)cc1 | 40 |
| COc1ccc(-n2cnc3cc(NCc4ccc(C(C)C)cc4)ccc32)cc1 | 3.1 |
| CCOc1ccc(-n2cnc3cc(NCc4ccc(CC)cc4)cnc32)cc1 | 28 |

system: Lassa virus; experiment: Antiviral activity against Lassa virus by pseudo-type antiviral assay; type: functional, organism-based; details: Mammarenavirus lassaense

| SMILES | EC50 [nM] |
| --- | --- |
| CCCc1nc2cc(NCc3ccc(CC)cc3)ccc2n1-c1ccc(OCC)cc1 | 170 |
| CCOc1ccc(-c2cnc3cc(NCc4ccc(CC)cc4)ccn23)cc1 | 9.3 |
| CCOc1ccc(-n2c(C#N)nc3cc(NCc4ccc(CC)cc4)ccc32)cc1 | 1.6 |
| CCc1ccc(CNc2cnc3c(c2)ncn3-c2ccc(O)cc2)cc1 | 19 |
| CCc1ccc(CNc2cnc3c(c2)ncn3-c2ccc(NC(C)=O)cc2)cc1 | 11 |
| CCOc1ccc(-n2cnc3cc(NCc4ccc(CC)cc4)cnc32)cc1CN | 58 |
| CCOc1ccc(-n2nnc3cc(NCc4ccc(CC)cc4)cnc32)cc1 | 0.87 |
| CCOc1ccc(-n2cnc3cc(NCc4ccc(CC)c(CN)c4)cnc32)cc1 | 26 |
| CCOc1ccc(-c2c[nH]c3cc(NCc4ccc(CC)cc4)ccc23)cc1 | 13 |
| CCOc1ccc(-n2cnc3cc(NCc4ccc(CC)cc4)cnc32)cc1N(C)C | 250 |
| CCOc1ccc(-n2ccc3cc(NCc4ccc(CC)cc4)ccc32)cc1 | 69 |
| CCOc1ccc(-n2cnc3cc(NCc4ccc(CC)cc4)cnc32)nc1 | 0.98 |
| CCOc1ccc(-n2c(C(=O)O)nc3cc(NCc4ccc(CC)cc4)cnc32)cc1 | 0.16 |
| CCOc1ccc(-n2c(O)nc3cc(NCc4ccc(CC)cc4)ccc32)cc1 | 1800 |
| CCOc1ccc(-n2cnc3cc(NCc4ccc(CC)cc4)cnc32)cn1 | 9 |
| CCc1ccc(CNc2cnc3c(c2)ncn3-c2ccc(OCCN(C)C)cc2)cc1 | 80 |
| CCOc1ccc(-n2cnc3cc(NCc4ccc(CC)cc4)cc(N)c32)cc1 | 620 |
| CCOc1ccc(-n2c(C(N)=O)nc3cc(NCc4ccc(CC)cc4)cnc32)cc1 | 4.4 |
| CCOc1ccc(-n2cnc3cc(NCc4ccc(CC)cc4)cc(C(=O)O)c32)cc1 | > 50000 |

| SMILES | EC50 [nM] |
| --- | --- |
| CCOc1ccc(-n2c(C(N)=O)nc3cc(NCc4ccc(CC)cc4)ccc32)cc1 | 9.2 |
| CCOc1ccc(-n2c(C)nc3cc(NCc4ccc(CC)cc4)ccc32)cc1 | 1.9 |
| CCOc1ccc(-n2cnc3nc(NCc4ccc(CC)cc4)ccc32)cc1 | 6.8 |
| COc1ccc(-n2ncc3cc(NCc4ccc(C(C)C)cc4)ccc32)cc1 | 130 |
| CCOc1ccc(-n2ccc3cc(NCc4ccc(CC)cc4)cnc32)cc1 | 25 |
| CCOc1ccc(-n2cnc3cc(NCCCc4ccc(CC)cc4)cnc32)cc1 | 210 |
| CCOc1ccc(-n2cnc3cc(NCc4ccc(CC)cc4)cnc32)c(CN)c1 | 1500 |
| CCOc1ccc(-n2cnc3cc(NCc4ccc(CC)cc4)cc(C(=O)OC)c32)cc1 | 220 |
| COc1ccc(-n2cnc3cc(NCc4ccc(C(C)C)cc4)ccc32)cc1 | 1.4 |
| CCOc1ccc(-n2c(C(=O)O)nc3cc(NCc4ccc(CC)cc4)ccc32)cc1 | 1.5 |
| CCOc1ccc(-n2nnc3cc(NCc4ccc(CC)cc4)ccc32)cc1 | 6.1 |
| CCOc1ccc(-n2cnc3cc(/N=C/c4ccc(CC)cc4)cnc32)cc1 | 4300 |
| CCOc1ccc(-n2c(N)nc3cc(NCc4ccc(CC)cc4)ccc32)cc1 | 29 |
| CCOc1ccc(-n2cnc3cc(NCc4ccc(CC)c(N(C)C)c4)cnc32)cc1 | 5.9 |
| CCOc1ccc(-n2cnc3cc(NCCc4ccc(CC)cc4)cnc32)cc1 | 65 |
| CCOc1ccc(-n2cnc3cc(NCc4ccc(CC)cc4)cnc32)cc1 | 0.16 |
| CCOc1ccc(-n2cnc3cc(NCc4ccc(CC)cc4)ccc32)cc1 | 1.5 |
| CCOc1ccc(Cn2cnc3cc(NCc4ccc(CC)cc4)cnc32)cc1 | 1600 |
| CCc1ccc(CNc2cnc3c(c2)ncn3-c2ccc(OCCCO)cc2)cc1 | 13 |
